# Assays:
# [1] = target: T1, recombinant human Meningioma Expressed Antigen 5 (MGEA5), also referred to as O-GlcNAcase (OGA) (Homo sapiens, UniProt O60502); assay: OGA biochemical assay (inhibition of FM-GlcNAc hydrolysis, fluorescence); details: for Emax: read-out: Enzymatic Emax (%); for IC50: read-out: Enzymatic hOGA, pIC50 (converted)
# T1 construct: Full length OGA enzyme was purchased at OnGene (cat #TP322411); purchased OnGene (so in the source)
# T1 sequence (O60502 1-916): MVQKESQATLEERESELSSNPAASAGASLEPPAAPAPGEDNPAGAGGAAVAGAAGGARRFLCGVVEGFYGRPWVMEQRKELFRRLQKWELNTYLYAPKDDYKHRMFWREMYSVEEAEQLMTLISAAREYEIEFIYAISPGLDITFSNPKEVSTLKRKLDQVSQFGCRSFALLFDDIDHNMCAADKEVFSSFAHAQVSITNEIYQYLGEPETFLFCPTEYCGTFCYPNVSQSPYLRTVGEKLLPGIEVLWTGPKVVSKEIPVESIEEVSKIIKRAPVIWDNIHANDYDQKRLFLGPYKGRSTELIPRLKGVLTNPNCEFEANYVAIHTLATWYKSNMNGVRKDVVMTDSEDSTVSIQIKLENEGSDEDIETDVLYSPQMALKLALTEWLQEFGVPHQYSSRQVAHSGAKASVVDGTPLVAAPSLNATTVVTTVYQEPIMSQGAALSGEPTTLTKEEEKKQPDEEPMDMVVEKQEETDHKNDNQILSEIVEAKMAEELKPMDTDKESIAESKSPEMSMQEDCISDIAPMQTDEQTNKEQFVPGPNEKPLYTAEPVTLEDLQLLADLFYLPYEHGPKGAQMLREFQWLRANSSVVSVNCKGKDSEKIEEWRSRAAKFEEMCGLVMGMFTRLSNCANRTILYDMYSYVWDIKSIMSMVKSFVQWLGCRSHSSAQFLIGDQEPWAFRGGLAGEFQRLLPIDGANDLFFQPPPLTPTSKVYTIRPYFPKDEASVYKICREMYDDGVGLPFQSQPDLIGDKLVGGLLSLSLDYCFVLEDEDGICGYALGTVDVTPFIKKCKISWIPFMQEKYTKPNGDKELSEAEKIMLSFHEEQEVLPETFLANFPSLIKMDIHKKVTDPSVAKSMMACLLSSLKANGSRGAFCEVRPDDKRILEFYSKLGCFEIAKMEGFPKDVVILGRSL
# Excerpt: The assay is based on the inhibition of the hydrolysis of fluorescein mono-β-D-N-Acetyl-Glucosamine (FM-GlcNAc) (Mariappa et al. 2015, Biochem J 470:255) by the recombinant human Meningioma Expressed Antigen 5 (MGEA5), also referred to as O-GlcNAcase (OGA). The hydrolysis FM-GlcNAc (Marker Gene technologies, cat #M1485) results in the formation of β-D-N-glucosamineacetate and fluorescein. The fluorescence of the latter can be measured at excitation wavelength 485 nm and emission wavelength 538 nm. An increase in enzyme activity results in an increase in fluorescence signal. Full length OGA enzyme was purchased at OnGene (cat #TP322411). The enzyme was stored in 25 mM Tris.HCl, pH 7.3, 100 mM glycine, 10% glycerol at −20° C. Thiamet G and GlcNAcStatin were tested as reference compounds (Yuzwa et al. 2008 Nature Chemical Biology 4:483; Yuzwa et al. 2012 Nature Chemical Biology 8:393). The assay was performed in 200 mM Citrate/phosphate buffer supplemented with 0.005% Tween-20. 35.6 g Na2HPO42H2O (Sigma, #C0759) were dissolved in 1 L water to obtain a 200 mM solution. 19.2 g citric acid (Merck, #1.06580) was dissolved in 1 L water to obtain a 100 mM solution. pH of the sodiumphosphate solution was adjusted with the citric acid solution to 7.2. The buffer to stop the reaction consists of a 500 mM Carbonate buffer, pH 11.0. 734 mg FM-GlcNAc were dissolved in 5.48 mL DMSO to obtain a 250 mM solution and was stored at −20° C. OGA was used at a 2 nM concentration and FM-GlcNAc at a 100 uM final concentration. Dilutions were prepared in assay buffer.
# 50 nl of a compound dissolved in DMSO was dispensed on Black Proxiplate TM 384 Plus Assay plates (Perkin Elmer, #6008269) and 3 μl fl-OGA enzyme mix added subsequently. Plates were pre-incubated for 60 min at room temperature and then 2 μl FM-GlcNAc substrate mix added. […] Plates were briefly centrifuged for 1 min at 1000 rpm and incubate at room temperature for 6 h. To stop the reaction 5 μl STOP buffer were added and plates centrifuge again 1 min at 1000 rpm. Fluorescence was quantified in the Thermo Scientific Fluoroskan Ascent or the PerkinElmer EnVision with excitation wavelength 485 nm and emission wavelength 538 nm.
# For analysis a best-fit curve is fitted by a minimum sum of squares method. From this an IC50 value and Hill coefficient was obtained. High control (no inhibitor) and low control (saturating concentrations of standard inhibitor) were used to define the minimum and maximum values.
# OGA = target: T2, OGA (Homo sapiens, UniProt O60502); assay: OGA cellular assay (ICC detection of O-GlcNAcylated proteins in HEK293 cells inducible for P301L mutant human Tau); type: cell-based; details: for Emax: HEK293, HEK293 cells inducible for P301L mutant human Tau; for EC50: 6 hours incubation, read-out: Cellular hOGA, pEC50 (converted)
# T2 construct: endogenous in cells; host or cells: HEK293 cells inducible for P301L mutant human Tau (2N4R)
# T2 sequence (O60502 1-916): T1 sequence (O60502 1-916)
# Experimental: HEK293 cells inducible for P301L mutant human Tau (isoform 2N4R) were established at Janssen. Thiamet-G was used for both plate validation (high control) and as reference compound (reference EC50 assay validation). OGA inhibition is evaluated through the immunocytochemical (ICC) detection of O-GlcNAcylated proteins by the use of a monoclonal antibody (CTD110.6; Cell Signaling, #9875) detecting 0-GlcNAcylated residues as previously described (Dorfmueller et al. 2010 Chemistry & biology, 17:1250). Inhibition of OGA will result in an increase of O-GlcNAcylated protein levels resulting in an increased signal in the experiment. Cell nuclei are stained with Hoechst to give a cell culture quality control and a rough estimate of immediate compounds toxicity, if any. ICC pictures are imaged with a Perkin Elmer Opera Phenix plate microscope and quantified with the provided software Perkin Elmer Harmony 4.1.
# Cells were propagated in DMEM high Glucose (Sigma, #D5796) following standard procedures. 2 days before the cell assay cells are split, counted and seeded in Poly-D-Lysine (PDL) coated 96-wells (Greiner, #655946) plate at a cell density of 12,000 cells per cm^2 (4,000 cells per well) in 100 μl of Assay Medium (Low Glucose medium is used to reduce basal levels of GlcNAcylation) (Park et al. 2014 The Journal of biological chemistry 289:13519). At the day of compound test medium from assay plates was removed and replenished with 90 μl of fresh Assay Medium. 10 μl of compounds at a 10 fold final concentration were added to the wells. Plates were centrifuged shortly before incubation in the cell incubator for 6 hours. DMSO concentration was set to 0.2%. Medium is discarded by applying vacuum. For staining of cells medium was removed and cells washed once with 100 μl D-PBS (Sigma, #D8537). From next step onwards unless other stated assay volume was always 50 μl and incubation was performed without agitation and at room temperature. Cells were fixed in 50 μl of a 4% paraformaldehyde (PFA, Alpha aesar, #043368) PBS solution for 15 minutes at room temperature. […] Before analysis samples were washed 2 times manually for 5 minutes in ICC base buffer.
# Imaging is performed using Perkin Elmer Phenix Opera using a water 20× objective and recording 9 fields per well. Intensity readout at 488 nm is used as a measure of O-GlcNAcylation level of total proteins in wells. To assess potential toxicity of compounds nuclei were counted using the Hoechst staining. IC50-values are calculated using parametric non-linear regression model fitting. As a maximum inhibition Thiamet G at a 200 uM concentration is present on each plate. In addition, a concentration response of Thiamet G is calculated on each plate.
# [2] = maximal effect, Thiamet G 200 uM as maximum
# [3] = HEK293 cells inducible for P301L mutant human Tau
SMILES,Emax ([1]; maximal effect),IC50 [1],Emax (OGA; [2]),EC50 (OGA; [3]),Enzymatic Emax (%) ([1]; maximal effect),"Cellular Emax (%) (OGA; HEK293 cells inducible for P301L mutant human Tau, maximal effect, Thiamet G 200 uM as maximum)"
Cc1cc(C[C@H]2CCCN(C(C)c3ccc4c(n3)OCCO4)C2)cc(OC(F)(F)F)n1 (mixture of isomers) [Product 67],102%,7.94 nM,89%,79.4 nM,–,–
Cc1cc(C[C@H]2CCCN(C(C)c3ccc4c(n3)OCCO4)C2)cc(C)n1 (mixture of isomers) [Product 44],101%,3.16 nM,91%,20 nM,–,–
Cc1cc(C[C@H]2CCCN(C(C)c3cc4c(cc3F)OCCO4)C2)cc(C)n1 (mixture of isomers) [Product 40],101%,2 nM,96%,15.8 nM,–,–
Cc1cc(NCC2CCCN(C(C)c3ccc4c(n3)OCCO4)C2)cc(C)n1 (stereo not shown) [Product 21],103%,5.01 nM,88%,15.8 nM,–,–
"Cc1cc(OC[C@H]2CCCN(C(C)c3nc4c(cc3F)CCO4)C2)cc(C)n1 (single isomer, unassigned) [Product 179]",100%,200 nM,72%,251 nM,–,–
Cc1cc(C[C@H]2CCCN(Cc3ccc4c(n3)OCCO4)C2)cc(C)n1 [Product 43],101%,63.1 nM,60%,501 nM,–,–
COc1cc(NC[C@H]2CCCN(C(C)c3nc4c(cc3F)OCCO4)C2)cc(C)n1 (stereo partly shown) [Product 182],99%,3.98 nM,106%,1.58 nM,–,–
"Cc1cc(OC[C@H]2CCCN(C(C)c3nc4c(cc3F)CCO4)C2)cc(C)n1 (single isomer, unassigned) [Product 180]",–,1.58 nM,–,1 nM,99%,79%
Cc1cc(C[C@H]2CCCN(C(C)c3ccc4c(n3)OCC(=O)N4)C2)cc(C)n1 (mixture of isomers) [Product 59],102%,126 nM,23%,> 1000 nM,–,–
Cc1cc(CO[C@@H]2CCCN([C@H](C)c3ccc4c(n3)OCCO4)C2)cc(C)n1 (mixture of isomers) [Product 112],98%,200 nM,8%,> 1000 nM,–,–
COc1cc(OC2CCCN(C(C)c3ccc4c(n3)OCCO4)C2)cc(C)n1 (stereo not shown) [Product 18],100%,50.1 nM,57%,794 nM,–,–
Cc1cc(C2CCCN(C(C)c3cnc4c(c3)OCCN4)C2)cc(C)n1 (stereo not shown) [Product 137],101%,20 nM,83%,50.1 nM,–,–
COc1cc(C[C@H]2CCCN(C(C)c3ccc4c(n3)OCCO4)C2)cc(C)n1 (mixture of isomers) [Product 63],101%,7.94 nM,69%,31.6 nM,–,–
COc1cc(C2CCCN(C(C)c3cc4c(cc3F)OCCO4)C2)cc(C(F)(F)F)n1 (stereo not shown) [Product 11],103%,20 nM,70%,316 nM,–,–
Cc1cc(C2CCCN(C(C)c3nc4c(cc3F)CCO4)C2)cc(C)n1 (stereo not shown) [Product 148],98%,15.8 nM,78%,10 nM,–,–
Cc1cc(CN[C@H]2CCCN(C(C)c3nc4c(cc3F)OCCO4)C2)cc(C)n1 (stereo partly shown) [Product 193],99%,3.16 nM,95%,31.6 nM,–,–
Cc1cc(C2CCCN([C@H](C)c3ccc4c(n3)OCCO4)C2)nc(C)n1 (mixture of isomers) [Product 113],100%,100 nM,55%,794 nM,–,–
"Cc1cc(CC2(F)CCCN([C@H](C)c3ccc4c(n3)OCCO4)C2)cc(C)n1 (single isomer, unassigned) [Product 176]",99%,15.8 nM,69%,126 nM,–,–
Cc1cc(C[C@H]2CCCN(C(C)c3ccc4c(c3)OCC4)C2)cc(C)n1 (mixture of isomers) [Product 47],103%,3.98 nM,81%,15.8 nM,–,–
Cc1cnc(OC2CCCN(C(C)c3ccc4c(n3)OCCO4)C2)c(C)n1 (stereo not shown) [Product 133],103%,15.8 nM,62%,501 nM,–,–
CC(c1nc2c(cc1F)OCCO2)N1CCC[C@H](NCc2ccc(F)cc2)C1 (stereo partly shown) [Product 196],95%,39.8 nM,70%,251 nM,–,–
"Cc1cc(OC[C@H]2CCCN([C@@H](C)c3ccc4c(n3)OCCO4)C2)cc(C)n1 (single isomer, unassigned) [Product 140]",72%,3980 nM,2%,> 1000 nM,–,–
